Assay results from patent US20210244738A1, “COMPOSITIONS AND METHODS FOR SUPPRESSING NONSENSE MUTATIONS” (The UAB Research Foundation, priority 2018, published 2021).

Key:
[1] = tested on: Idua mRNA in wildtype MEFs; experiment: Steady state Idua mRNA by qPCR in wildtype MEFs; format: cell-based, mouse; conditions: 48 hours, compared to the vehicle alone control
Experimental: Total RNA was isolated from MEFs using the Ambion RiboPure kit and DNase-treated using the Turbo DNA-Free kit. Polyadenylated RNA was reverse transcribed into cDNA in a 50 μl reaction containing […] of total RNA; 0.5 mg/ml oligo dT; 1.2 mM dNTPs; 40 U RNasin (Promega); […] of 5×AMV RT buffer and 40 U AMV reverse transcriptase (Promega), RT reactions were incubated at 42° C. for 1.5 hours, and then heat inactivated at 65° C. for 15 minutes. The cDNA was ethanol precipitated and subjected to qPCR in a 25 μl reaction containing 12.5 μl iQ SYBR Green Supermix (Bio-Rad); 0.2 mM of each forward and reverse primer; and […] of cDNA. […]
Melt curve analysis was initially performed with each primer set to verify that only one gene product was generated from the PCR reactions. […] The average quantification cycle (Cq) was determined for each mRNA, and mRNA quantification was performed using the Livak (DDCq) method (Livak K J, et al. (2001) Methods. 25(4):402-8), where Gapdh and Rpl13a served as normalization controls.

[2] = tested on: W134X NanoLuc RT/NMD reporter; experiment: W134X NanoLuc readthrough/NMD reporter screen in Fischer rat thyroid cells; format: cell-based; conditions: NanoLuc activity; for +G418 Fold-Increase (Rel. to G418): drug conc. 60 μM combined with G418 100 μg/ml
Experimental: Equal numbers of the W134X NanoLuc RT/NMD monoclonal reporter cells were seeded into 96-well plates and cultured without zeocin for 24 hours. The cells were then treated with screening compounds for 24-hours. Dimethylsulfoxide served as the vehicle in which compounds were administered at a final concentration of 60 μM or 30 μg/ml. After treatment, the cells were washed once with phosphate-buffered saline, followed by incubation with passive lysis buffer (PLB) (Promega, E1941) for 20 minutes at room temperature. NanLuc activity in cell lysates was assayed with the Nano-Glo Luciferase Assay System (Promega, N1120) using the GloMax® Discover System (Promega). NanoLuc activity was normalized to the lysate protein concentration, which was determined by the Bio-Rad Protein Assay Reagent (Bio-Rad, 500-006).
In order to identify new compounds with the ability to suppress PTCs by inducing readthrough, inhibiting NMD, or both, a NanoLuc reporter that harbors a point mutation at codon W134 was utilized, resulting in the introduction of a UGA termination codon (W134X) into the NanoLuc cDNA. This NanoLuc construct was fused in-frame to a human β-globin construct containing intronic regions, which allows the W134X PTC to elicit exon-junction-complex dependent NMD (FIG. 1A). This NanoLuc readthrough/NMD reporter was stably expressed in Fischer rat thyroid cells, which were used to screen a 10,000 low molecular weight compound library for compounds that increase NanoLuc activity in treated cells relative to a vehicle control.

Idua-KO MEFs [3] = experiment: α-L-iduronidase activity in Idua-KO MEFs; format: cell-based, mouse; conditions: 48 hours (FIG. 7A)
Experimental: MEFs were seeded into 6-well culture dishes at a density of 1.5×10^5 cells per well. MEFs were grown to 50% confluency and then treated with screening agents for 48 hours. MEFs were subsequently washed with PBS and lysed in Mammalian Protein Extraction Reagent (Pierce) containing a protease inhibitor cocktail (Roche). The total protein concentration was determined using the Bio-Rad Protein Assay, Approximately 75 micrograms of total lysate protein was incubated in a 70-microliter reaction containing 0.12 mM 4-methyl-umbelliferyl-α-L-iduronide (Gold Biotech) and 0.42 mg/ml of D-saccharic acid 1,4-lactone monohydrate (a β-glucuronidase inhibitor) (Sigma 50375) in 130 mM sodium formate buffer, pH 3.5. The reaction was incubated for 72 hours at 37° C. and then quenched with 300 μl of glycine buffer, pH 10.8. 200 μl of each sample was transferred to a 96-well plate (Corning 3631) and fluorescence was measured at an excitation=365 nm and an emission=450 nm using the GloMax® Discover System (Promega). Free acid 4-methylumbelliferone (FMU) (Sigma M1381) in glycine buffer was used to generate a standard curve.

Idua-KO MEFs [4] = experiment: GAG levels in Idua-KO MEFs; format: cell-based, mouse; conditions: 48 hours (FIG. 7B)
Experimental: MEFs were grown to 50% confluency and then treated with screening agents for 48 hours.

[5] = tested on: cystic fibrosis patients who carry a PTC; conditions: Kerem et al. 2014; cited from earlier work
[6] = Hirawat et al. 2004, 2007; cited from earlier work

Row | Compound | +G418 Fold-Increase (Rel. to G418) [2] | Drug Alone Fold-Increase (Rel. to Basal) ([2]; drug conc. 60 μM, 24 h) | other results
1 | COc1cc2nc(N3CCN(C(=O)C4COc5ccccc5O4)CC3)nc(N)c2cc1OC (stereo not shown) [Doxazocin] | 10.3 fold | 4.1 fold | change of Idua mRNA levels [1]: slightly increased Idua mRNA levels
2 | COc1cc2c(cc1OC)CN(CCc1ccc(NC(=O)c3cccc4c(=O)c5cccc(OC)c5[nH]c34)cc1)CC2 [Elacridar] | 6.0 fold | 4.8 fold | 
3 | CN[C@@H]1[C@@H](O)[C@@H](O[C@@H]2[C@@H](O)[C@H](O[C@H]3O[C@H]([C@@H](C)O)[C@@H](O)[C@H](O)[C@H]3N)[C@@H](N)C[C@H]2N)OC[C@]1(C)O [G418 alone] |  |  | Drug Alone Fold-Increase (Rel. to Basal) ([2]; readthrough control at 100 μg/ml): 24 fold
4 | CCCn1c(=O)c2[nH]c(-c3cnn(Cc4cccc(C(F)(F)F)c4)c3)nc2n(CC)c1=O [GS-6201] | 13.6 fold | 10.3 fold | 
5 | Cc1ccc(NC(=O)c2ccc(CN3CCN(C)CC3)cc2)cc1Nc1nccc(-c2cccnc2)n1 [Imantinib] | 19.1 fold | 4.6 fold | 
6 | C=CCN1CC[C@]23c4c5ccc(O)c4O[C@H]2/C(=N/N=C2\CC[C@@]4(O)[C@H]6Cc7ccc(O)c8c7[C@@]4(CCN6CC=C)[C@H]2O8)CC[C@@]3(O)[C@H]1C5 [Naloxonazine] | 5.8 fold | 2.7 fold | 
7 | CN1CC(=O)N2[C@H](c3ccc4c(c3)OCO4)c3[nH]c4ccccc4c3C[C@@H]2C1=O [Tadalafil] | 6.3 fold | 2.3 fold | 
8 | COc1cc2c(N3CCN(C(=O)Nc4ccc(OC(C)C)cc4)CC3)ncnc2cc1OCCCN1CCCCC1 [Tandutinib] | 7.8 fold | 3.8 fold | 
9 | Nc1nc(N)c2nc(-c3ccccc3)c(N)nc2n1 [Triamterene, 2,4,7-triamino-6-phenylpteridine] | 15.7 fold | 13.4 fold | α-L-iduronidase activity (Idua-KO MEFs [3]): slight increases in α-L-iduronidase; change of Idua mRNA levels [1]: did not significantly change Idua mRNA levels; reduction in GAGs (Idua-KO MEFs [4]): little to no reduction in GAGs
10 | O=C(O)c1cccc(-c2noc(-c3ccccc3F)n2)c1 [ataluren] |  |  | lung function [5]: did not significantly improve lung function; toxicity / safety for clinical use [6]: non-toxic and safe for clinical use
11 | Verteporfin | 7.1 fold | 4.3 fold | 
